Values quoted from earlier work as cited in patent US12533344B2, “Formulations” (Glaukos Corporation, priority 2021, dated 2026).
Like-named read-outs stand apart in the source and are kept apart here.

Settings: for Effective Buffering Range: pH range

## O=C1O[C@H]([C@@H](O)CO)C(O)=C1O [Ascorbic acid]
  Effective Buffering Range: 3.3-6.2

## O=C(O)CCCCCCCC(=O)O [Azeliac acid]
Buffers and stabilizers of Table 1
  pKa: 4.60
  Effective Buffering Range: 3.3-6.0

## CC(O)C(=O)O (stereo not shown) [Lactic acid]
  Effective Buffering Range: 2.8-5.3

## CC[C@@H]1C(=O)OC[C@@H]1Cc1cncn1C [pilocarpine, reference compound]
  pKa of pilocarpine: ~6.5

## Citrate buffer
Listed as Citrate buffer-pKa1
  Effective Buffering Range: 2.2-5.0
Listed as Citrate buffer-pKa2
  Effective Buffering Range: 3.0-6.2
